Assay results from the supplement of paper PMC12463676, “Small-molecule dissolution of stress granules by redox modulation benefits ALS models” (Nature Chemical Biology, 2025).

Assays:
lipoamide = compound: NC(=O)CCCCC1CCSS1 [lipoamide]; test: thermal stability z-score vs DMSO; higher = more thermally stabilized by treatment; details: HeLa, lipoamide concentration 100 µM
Procedure: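 Cellular thermal proteome profiling in HeLa cells. Cells were treated with 100 µM lipoamide for 1 h, with or without 1 mM arsenate for a further 1 h, then heated to ten temperatures (37-66.3 °C), and soluble protein was quantified by TMT mass spectrometry relative to 0.1% DMSO controls. The thermal stability score (sum of log2 fold changes minus the abundance score) was transformed to a z-score; mean of n = 3 experiments.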

potassium arsenate = compound: O=[As]([O-])(O)O.[K+] [potassium arsenate]; test: as above; details: HeLa; arsenate concentration 1 mM
Procedure: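 Cellular thermal proteome profiling in HeLa cells treated with 1 mM arsenate for 1 h (DMSO pretreatment), heated to ten temperatures (37-66.3 °C). Soluble protein was quantified by TMT mass spectrometry relative to DMSO controls; the thermal stability score was transformed to a z-score; mean of n = 3 experiments.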

[1] = arsenate co-treatment: 1 mM arsenate 1 h
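Note: each temperature applied for 3 min, abundance score taken as mean log2 fold change at the two lowest temperatures, z-score obtained by mean subtraction and division by SD.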

Sequence of UniProt Q9Y320 (Q9Y320 whole entry): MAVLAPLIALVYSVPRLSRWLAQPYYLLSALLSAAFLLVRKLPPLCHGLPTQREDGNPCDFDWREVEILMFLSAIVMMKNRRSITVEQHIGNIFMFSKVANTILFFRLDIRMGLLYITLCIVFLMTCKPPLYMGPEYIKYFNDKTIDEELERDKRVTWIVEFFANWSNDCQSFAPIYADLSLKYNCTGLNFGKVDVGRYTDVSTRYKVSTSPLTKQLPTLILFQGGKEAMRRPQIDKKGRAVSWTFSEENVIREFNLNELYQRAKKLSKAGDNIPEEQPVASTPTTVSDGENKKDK
Sequence of UniProt Q9BTX3 (Q9BTX3 whole entry): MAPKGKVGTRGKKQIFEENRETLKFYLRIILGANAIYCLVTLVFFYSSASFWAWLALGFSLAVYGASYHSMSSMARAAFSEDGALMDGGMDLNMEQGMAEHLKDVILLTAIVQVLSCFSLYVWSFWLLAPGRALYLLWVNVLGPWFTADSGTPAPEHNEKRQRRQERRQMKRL
Sequence of UniProt Q6UW68 (Q6UW68 whole entry): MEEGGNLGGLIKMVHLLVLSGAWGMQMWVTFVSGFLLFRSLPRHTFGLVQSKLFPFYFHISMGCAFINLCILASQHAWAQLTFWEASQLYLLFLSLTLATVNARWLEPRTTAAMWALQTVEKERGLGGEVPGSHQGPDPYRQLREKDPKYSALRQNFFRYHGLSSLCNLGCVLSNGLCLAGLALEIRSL
Sequence of UniProt O95379 (O95379 whole entry): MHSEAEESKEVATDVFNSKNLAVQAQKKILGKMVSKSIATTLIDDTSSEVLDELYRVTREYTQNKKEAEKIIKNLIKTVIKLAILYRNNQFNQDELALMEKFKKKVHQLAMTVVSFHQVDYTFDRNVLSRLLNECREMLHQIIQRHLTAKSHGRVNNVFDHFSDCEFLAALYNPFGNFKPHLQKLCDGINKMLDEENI
Sequence of UniProt Q9H061 (Q9H061 whole entry): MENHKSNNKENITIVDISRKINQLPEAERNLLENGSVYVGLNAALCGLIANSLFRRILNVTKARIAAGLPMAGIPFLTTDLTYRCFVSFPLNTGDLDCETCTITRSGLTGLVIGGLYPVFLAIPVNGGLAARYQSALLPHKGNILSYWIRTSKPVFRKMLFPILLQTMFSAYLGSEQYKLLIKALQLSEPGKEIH
Sequence of UniProt Q6PI78 (Q6PI78 whole entry): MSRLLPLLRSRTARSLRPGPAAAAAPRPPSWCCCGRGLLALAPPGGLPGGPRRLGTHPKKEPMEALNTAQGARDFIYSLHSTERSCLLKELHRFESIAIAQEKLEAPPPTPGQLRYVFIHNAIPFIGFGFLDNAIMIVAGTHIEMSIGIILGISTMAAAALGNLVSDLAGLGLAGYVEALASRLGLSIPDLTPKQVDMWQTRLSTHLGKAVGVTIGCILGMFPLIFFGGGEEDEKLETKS
Sequence of UniProt Q6NUQ4 (Q6NUQ4 whole entry): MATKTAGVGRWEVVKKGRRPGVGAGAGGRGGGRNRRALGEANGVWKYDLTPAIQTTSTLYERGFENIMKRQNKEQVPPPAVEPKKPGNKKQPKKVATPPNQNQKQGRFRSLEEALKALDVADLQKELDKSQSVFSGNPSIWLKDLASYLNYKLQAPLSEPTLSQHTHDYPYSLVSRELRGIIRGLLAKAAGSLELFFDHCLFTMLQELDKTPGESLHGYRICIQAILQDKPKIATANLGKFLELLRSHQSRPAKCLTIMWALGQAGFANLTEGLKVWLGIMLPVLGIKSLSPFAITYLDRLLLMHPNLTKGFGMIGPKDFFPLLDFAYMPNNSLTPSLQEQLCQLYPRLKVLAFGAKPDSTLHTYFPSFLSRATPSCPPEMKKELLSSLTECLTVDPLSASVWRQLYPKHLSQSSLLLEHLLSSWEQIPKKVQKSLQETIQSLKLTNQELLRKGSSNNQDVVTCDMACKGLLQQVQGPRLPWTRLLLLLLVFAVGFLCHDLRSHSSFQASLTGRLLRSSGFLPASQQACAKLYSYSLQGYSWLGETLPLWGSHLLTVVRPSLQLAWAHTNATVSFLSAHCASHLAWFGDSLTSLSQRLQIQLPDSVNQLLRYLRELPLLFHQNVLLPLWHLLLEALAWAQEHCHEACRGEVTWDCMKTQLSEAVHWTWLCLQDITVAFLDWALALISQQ
Sequence of UniProt Q86T03 (Q86T03 whole entry): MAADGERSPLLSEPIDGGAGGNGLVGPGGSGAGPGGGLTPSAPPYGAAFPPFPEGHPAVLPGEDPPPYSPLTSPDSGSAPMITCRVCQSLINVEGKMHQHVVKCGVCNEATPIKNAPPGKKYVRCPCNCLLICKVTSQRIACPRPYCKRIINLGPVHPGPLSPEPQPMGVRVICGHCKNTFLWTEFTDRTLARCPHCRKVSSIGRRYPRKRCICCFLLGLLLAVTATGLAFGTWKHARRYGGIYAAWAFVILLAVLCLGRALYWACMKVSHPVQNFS
Sequence of UniProt O94886 (O94886 whole entry): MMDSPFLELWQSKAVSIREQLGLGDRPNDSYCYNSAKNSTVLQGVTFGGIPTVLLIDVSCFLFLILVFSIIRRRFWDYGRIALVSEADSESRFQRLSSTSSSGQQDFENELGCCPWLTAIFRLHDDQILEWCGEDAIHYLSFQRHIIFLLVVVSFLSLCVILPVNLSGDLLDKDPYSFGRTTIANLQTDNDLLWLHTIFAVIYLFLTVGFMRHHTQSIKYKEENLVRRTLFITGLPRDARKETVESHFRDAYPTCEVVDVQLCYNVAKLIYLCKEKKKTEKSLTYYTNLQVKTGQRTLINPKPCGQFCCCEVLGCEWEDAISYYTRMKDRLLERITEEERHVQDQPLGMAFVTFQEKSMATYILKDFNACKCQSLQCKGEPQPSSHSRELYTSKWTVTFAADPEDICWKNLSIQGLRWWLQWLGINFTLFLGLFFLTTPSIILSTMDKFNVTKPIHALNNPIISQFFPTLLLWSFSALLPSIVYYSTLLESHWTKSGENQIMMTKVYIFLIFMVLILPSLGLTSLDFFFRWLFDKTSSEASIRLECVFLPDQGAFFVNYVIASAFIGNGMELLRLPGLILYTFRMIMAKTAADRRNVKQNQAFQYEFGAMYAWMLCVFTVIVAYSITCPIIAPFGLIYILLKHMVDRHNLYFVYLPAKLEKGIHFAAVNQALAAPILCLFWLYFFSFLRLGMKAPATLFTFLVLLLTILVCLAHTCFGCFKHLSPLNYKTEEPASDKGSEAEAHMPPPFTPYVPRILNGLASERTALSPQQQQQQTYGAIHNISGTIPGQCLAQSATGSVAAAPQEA
Sequence of UniProt Q5T3F8 (Q5T3F8 whole entry): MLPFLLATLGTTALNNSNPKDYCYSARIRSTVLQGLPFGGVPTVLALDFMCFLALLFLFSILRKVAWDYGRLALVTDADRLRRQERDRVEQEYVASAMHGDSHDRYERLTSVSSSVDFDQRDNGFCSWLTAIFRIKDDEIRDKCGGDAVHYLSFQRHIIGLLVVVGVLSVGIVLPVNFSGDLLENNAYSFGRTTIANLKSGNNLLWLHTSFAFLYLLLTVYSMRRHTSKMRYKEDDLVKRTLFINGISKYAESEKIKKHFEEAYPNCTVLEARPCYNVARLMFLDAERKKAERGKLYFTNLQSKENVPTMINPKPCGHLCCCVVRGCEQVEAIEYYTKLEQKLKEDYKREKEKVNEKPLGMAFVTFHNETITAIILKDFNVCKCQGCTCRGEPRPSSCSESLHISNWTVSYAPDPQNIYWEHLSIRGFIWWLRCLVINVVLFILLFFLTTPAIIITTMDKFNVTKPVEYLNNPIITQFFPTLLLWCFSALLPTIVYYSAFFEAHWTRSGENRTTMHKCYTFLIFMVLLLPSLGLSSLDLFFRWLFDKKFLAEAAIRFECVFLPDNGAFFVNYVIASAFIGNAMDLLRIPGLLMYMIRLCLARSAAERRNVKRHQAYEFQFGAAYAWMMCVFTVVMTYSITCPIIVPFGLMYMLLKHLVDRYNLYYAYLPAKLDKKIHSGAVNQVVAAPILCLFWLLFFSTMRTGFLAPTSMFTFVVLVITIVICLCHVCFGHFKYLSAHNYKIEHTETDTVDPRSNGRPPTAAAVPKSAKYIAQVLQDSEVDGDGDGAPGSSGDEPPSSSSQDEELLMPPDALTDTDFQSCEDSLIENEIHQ
Sequence of UniProt Q03169 (Q03169 whole entry): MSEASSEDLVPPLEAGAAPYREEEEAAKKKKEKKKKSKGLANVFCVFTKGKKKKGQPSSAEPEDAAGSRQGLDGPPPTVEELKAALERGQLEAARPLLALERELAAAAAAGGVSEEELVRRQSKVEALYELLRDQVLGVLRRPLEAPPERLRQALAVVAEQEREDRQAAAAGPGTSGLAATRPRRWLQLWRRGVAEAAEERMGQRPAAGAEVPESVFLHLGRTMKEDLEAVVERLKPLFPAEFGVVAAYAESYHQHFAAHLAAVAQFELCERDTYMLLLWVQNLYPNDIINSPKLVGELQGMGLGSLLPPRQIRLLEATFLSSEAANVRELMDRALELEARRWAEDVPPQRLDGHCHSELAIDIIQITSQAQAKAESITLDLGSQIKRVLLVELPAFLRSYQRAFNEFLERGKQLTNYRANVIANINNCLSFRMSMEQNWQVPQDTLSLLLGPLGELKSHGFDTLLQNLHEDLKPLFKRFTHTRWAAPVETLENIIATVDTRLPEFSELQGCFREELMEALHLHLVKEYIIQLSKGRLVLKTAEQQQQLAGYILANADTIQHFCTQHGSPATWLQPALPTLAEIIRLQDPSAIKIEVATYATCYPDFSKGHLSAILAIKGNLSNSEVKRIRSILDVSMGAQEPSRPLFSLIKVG
Sequence of UniProt Q96MH6 (Q96MH6 whole entry): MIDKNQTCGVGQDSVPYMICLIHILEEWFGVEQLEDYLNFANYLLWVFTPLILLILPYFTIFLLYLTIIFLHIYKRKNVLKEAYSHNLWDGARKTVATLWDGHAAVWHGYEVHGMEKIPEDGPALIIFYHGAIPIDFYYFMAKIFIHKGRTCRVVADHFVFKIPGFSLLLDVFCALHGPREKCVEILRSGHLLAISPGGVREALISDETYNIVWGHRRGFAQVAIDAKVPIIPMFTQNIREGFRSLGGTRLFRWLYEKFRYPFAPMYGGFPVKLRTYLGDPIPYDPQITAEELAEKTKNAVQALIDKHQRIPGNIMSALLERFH
Sequence of UniProt P63313 (P63313 whole entry): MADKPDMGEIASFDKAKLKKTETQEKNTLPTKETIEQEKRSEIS

Target	thermal stability z-score (lipoamide; [1])	thermal stability z-score (lipoamide; arsenate co-treatment: none)	thermal stability z-score (potassium arsenate)
TMEM55B (UniProt Q86T03)	0.572	0.963	0.592
TMEM56 (UniProt Q96MV1)	0.138	1.15	0.953
TMEM57 (UniProt Q8N5G2)	0.13	-0.0957	-0.249
TMEM59 (UniProt Q9BXS4)	-1.01	-0.383	-0.0618
TMEM63A (UniProt O94886)	-0.739	-0.0217	-0.159
TMEM63B (UniProt Q5T3F8)	-0.865	-0.374	-0.606
TMEM65 (UniProt Q6PI78)	-0.379	-0.204	0.128
TMEM68 (UniProt Q96MH6)	0.361	-0.287	-0.552
TMEM70 (UniProt Q9BUB7)	0.461	-0.347	0.259
TMEM87A (UniProt Q8NBN3)	0.451	0.36	0.645
TMEM87B (UniProt Q96K49)	-0.402	0.56	-0.0195
TMEM97 (UniProt Q5BJF2)	0.385	0.189	0.108
TMEM106B (UniProt Q9NUM4)	-0.167	0.154	0.192
TMEM109 (UniProt Q9BVC6)	0.0915	0.27	0.115
TMEM115 (UniProt Q12893)	0.0848	0.637	-0.307
TMEM126A (UniProt Q9H061)	0.676	0.815	0.231
TMEM126B (UniProt Q8IUX1)	1.31	1.36	1.18
TMEM131 (UniProt Q92545)	-1.03	0.061	0.83
TMEM160 (UniProt Q9NX00)	-0.0998	0.628	0.0213
TMEM161A (UniProt Q9NX61)	-0.0739	-0.0906	0.0752
TMEM165 (UniProt Q9HC07)	0.669	-0.0469	0.116
TMEM173 (UniProt Q86WV6)	0.0822	-0.0914	-0.0763
TMEM181 (UniProt Q9P2C4)	0.128	0.201	0.205
TMEM186 (UniProt Q96B77)	-1.59	-0.895	-0.803
TMEM189 (UniProt A5PLL7)	-0.772	-0.595	-0.167
TMEM192 (UniProt Q8IY95)	-0.861	0.064	-0.137
TMEM199 (UniProt Q8N511)	-0.91	-1.15	0.171

Target	thermal stability z-score (lipoamide; [1])	thermal stability z-score (lipoamide; arsenate co-treatment: none)	thermal stability z-score (potassium arsenate)
TMEM205 (UniProt Q6UW68)	1.01	0.394	1.79
TMEM206 (UniProt Q9H813)	0.109	0.0248	-0.299
TMEM208 (UniProt Q9BTX3)	0.0799	-0.132	-0.159
TMEM209 (UniProt Q96SK2)	-0.644	0.109	1.25
TMEM214 (UniProt Q6NUQ4)	-0.283	-0.131	-0.768
TMEM223 (UniProt A0PJW6)	-0.653	0.466	1.09
TMEM237 (UniProt Q96Q45)	0.0486	0.457	-1.23
TMEM245 (UniProt Q9H330)	1.28	0.28	1.86
TMEM259 (UniProt Q4ZIN3)	-0.193	-0.832	0.701
TMEM263 (UniProt Q8WUH6)	0.283	-0.54	1.43
TMF1 (UniProt P82094)	-0.551	-0.475	-0.126
TMOD1 (UniProt P28289)	0.167	0.298	0.225
TMOD3 (UniProt Q9NYL9)	-0.494	0.384	0.732
TMPIT|TMEM120A	0.15	0.398	-0.269
TMPO	0.194	0.0563	2.87
TMSB10 (UniProt P63313)	0.8	0.288	0.014
TMTC3 (UniProt Q6ZXV5)	-1.23	-0.796	0.605
TMUB2 (UniProt Q71RG4)	1.9	1.78	2.27
TMX1 (UniProt Q9H3N1)	0.948	1.34	-0.418
TMX2 (UniProt Q9Y320)	-1.05	-2.85	-1.96
TMX3 (UniProt Q96JJ7)	-0.503	-0.791	1.29
TMX4 (UniProt Q9H1E5)	-1.34	-1.22	0.19
TNFAIP1 (UniProt Q13829)	-0.526	-0.699	-0.727
TNFAIP2 (UniProt Q03169)	0.331	0.638	0.97
TNFAIP3 (UniProt P21580)	-0.409	-0.303	-0.522
TNFAIP8 (UniProt O95379)	0.127	-0.421	0.147
TNFRSF1A (UniProt P19438)	-0.0438	-0.00708	0.164
